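Method: 48-hour compound exposure of cells in 96-well plates, five concentrations, linear interpolation of endpoints. TGI marks complete inhibition of growth.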
Experiments:
Experiment in all cases: NCI-60 cell line screen, 48 h
SF-295 CNS = system: SF-295 CNS
OVCAR-4 ovarian = system: OVCAR-4 ovarian
UACC-62 melanoma = system: UACC-62 melanoma
NCI-H522 lung = system: NCI-H522 lung
HCC-2998 colon = system: HCC-2998 colon
BT-549 breast = system: BT-549 breast
OVCAR-3 ovarian = system: OVCAR-3 ovarian
SW-620 colon = system: SW-620 colon
MOLT-4 leukemia = system: MOLT-4 leukemia
KM12 colon = system: KM12 colon
DU-145 prostate = system: DU-145 prostate
RPMI-8226 leukemia = system: RPMI-8226 leukemia
HCT-116 colon = system: HCT-116 colon
MDA-MB-231 breast = system: MDA-MB-231 breast
PC-3 prostate = system: PC-3 prostate
CCRF-CEM leukemia = system: CCRF-CEM leukemia
HS 578T breast = system: HS 578T breast
NCI/ADR-RES ovarian = system: NCI/ADR-RES ovarian
A549 NSCLC = system: A549 NSCLC
U251 CNS = system: U251 CNS
EKVX NSCLC = system: EKVX NSCLC
OVCAR-5 ovarian = system: OVCAR-5 ovarian
NCI-H226 lung = system: NCI-H226 lung
MALME-3M melanoma = system: MALME-3M melanoma
NCI-H460 lung = system: NCI-H460 lung
HT29 colon = system: HT29 colon
UACC-257 melanoma = system: UACC-257 melanoma
A498 renal = system: A498 renal
HOP-92 NSCLC = system: HOP-92 NSCLC
TK-10 renal = system: TK-10 renal
HOP-62 NSCLC = system: HOP-62 NSCLC
RXF 393 renal = system: RXF 393 renal
K-562 leukemia = system: K-562 leukemia
MDA-N = system: MDA-N
SK-OV-3 ovarian = system: SK-OV-3 ovarian
NCI-H23 lung = system: NCI-H23 lung
MCF7 breast = system: MCF7 breast
786-0 renal = system: 786-0 renal
T-47D breast = system: T-47D breast
CAKI-1 renal = system: CAKI-1 renal
HCT-15 colon = system: HCT-15 colon
SF-539 CNS = system: SF-539 CNS
MDA-MB-435 = system: MDA-MB-435
SK-MEL-28 melanoma = system: SK-MEL-28 melanoma
SNB-19 CNS = system: SNB-19 CNS
LOX IMVI melanoma = system: LOX IMVI melanoma
ACHN renal = system: ACHN renal
SK-MEL-5 melanoma = system: SK-MEL-5 melanoma
HL-60(TB) leukemia = system: HL-60(TB) leukemia
SR leukemia = system: SR leukemia
COLO 205 colon = system: COLO 205 colon
SN12C renal = system: SN12C renal
UO-31 renal = system: UO-31 renal
SNB-75 CNS = system: SNB-75 CNS
IGROV1 ovarian = system: IGROV1 ovarian
SK-MEL-2 melanoma = system: SK-MEL-2 melanoma
OVCAR-8 ovarian = system: OVCAR-8 ovarian
SF-268 CNS = system: SF-268 CNS
M14 melanoma = system: M14 melanoma

Question: What does the source list for `COc1cc(-c2cc(O)c(-c3ccc4ccccc4n3)c(=O)[nH]2)cc(OC)c1OC`?
Answer: TGI (SF-295 CNS): > 67.7 µM; TGI (OVCAR-4 ovarian): > 53.6 µM; TGI (UACC-62 melanoma): > 67.9 µM; TGI (NCI-H522 lung): 40.8 µM; TGI (HCC-2998 colon): > 100 µM; TGI (BT-549 breast): > 100 µM; TGI (OVCAR-3 ovarian): > 48.9 µM; TGI (SW-620 colon): 66.1 µM; TGI (MOLT-4 leukemia): 50.9 µM; TGI (KM12 colon): > 100 µM; TGI (DU-145 prostate): > 85.6 µM; TGI (RPMI-8226 leukemia): > 95.3 µM; TGI (HCT-116 colon): 62.2 µM; TGI (MDA-MB-231 breast): > 70.2 µM; TGI (PC-3 prostate): > 100 µM; TGI (CCRF-CEM leukemia): > 30.6 µM; TGI (HS 578T breast): > 100 µM; TGI (NCI/ADR-RES ovarian): > 100 µM; TGI (A549 NSCLC): > 95 µM; TGI (U251 CNS): > 48.2 µM; TGI (EKVX NSCLC): > 100 µM; TGI (OVCAR-5 ovarian): > 94.2 µM; TGI (NCI-H226 lung): > 77.6 µM; TGI (MALME-3M melanoma): > 54.8 µM; TGI (NCI-H460 lung): > 80.6 µM; TGI (HT29 colon): > 73.1 µM; TGI (UACC-257 melanoma): > 100 µM; TGI (A498 renal): > 100 µM; TGI (HOP-92 NSCLC): > 81.6 µM; TGI (TK-10 renal): > 100 µM; TGI (HOP-62 NSCLC): > 90.4 µM; TGI (RXF 393 renal): > 82.8 µM; TGI (K-562 leukemia): > 32.1 µM; TGI (MDA-N): 34.9 µM; TGI (SK-OV-3 ovarian): > 73.2 µM; TGI (NCI-H23 lung): > 95.5 µM; TGI (MCF7 breast): > 100 µM; TGI (786-0 renal): > 69.6 µM; TGI (T-47D breast): > 100 µM; TGI (CAKI-1 renal): > 87.9 µM; TGI (HCT-15 colon): > 100 µM; TGI (SF-539 CNS): 74.5 µM; TGI (MDA-MB-435): 11.6 µM; TGI (SK-MEL-28 melanoma): > 100 µM; TGI (SNB-19 CNS): > 100 µM; TGI (LOX IMVI melanoma): > 53.8 µM; TGI (ACHN renal): > 89.8 µM; TGI (SK-MEL-5 melanoma): 62.6 µM; TGI (HL-60(TB) leukemia): 35.3 µM; TGI (SR leukemia): 20.9 µM; TGI (COLO 205 colon): > 93.2 µM; TGI (SN12C renal): > 100 µM; TGI (UO-31 renal): > 100 µM; TGI (SNB-75 CNS): 46.1 µM; TGI (IGROV1 ovarian): > 78.8 µM; TGI (SK-MEL-2 melanoma): > 78.9 µM; TGI (OVCAR-8 ovarian): > 54.9 µM; TGI (SF-268 CNS): > 80.5 µM; TGI (M14 melanoma): > 95.2 µM

Question: Which TGI (SF-295 CNS) does the source give for `O=C1C2=C(CC3=C(C2)CS(=O)(=O)C3)C(=O)C2=C1CC1=C(C2)CS(=O)(=O)C1` here?
Answer: 44.9 µM

Question: And the TGI (OVCAR-4 ovarian)?
Answer: > 33.1 µM

Question: What about the TGI (UACC-62 melanoma) of the same compound?
Answer: 37.1 µM

Question: What about the TGI (NCI-H522 lung) of the same compound?
Answer: 22.2 µM

Question: And the TGI (HCC-2998 colon)?
Answer: > 51.6 µM

Question: What about the TGI (BT-549 breast) of the same compound?
Answer: 44.8 µM

Question: What about the TGI (OVCAR-3 ovarian) of the same compound?
Answer: 9.03 µM

Question: What about the TGI (SW-620 colon) of the same compound?
Answer: 47.1 µM

Question: What about the TGI (MOLT-4 leukemia) of the same compound?
Answer: > 65.6 µM

Question: And the TGI (KM12 colon)?
Answer: > 40.8 µM

Question: And the TGI (DU-145 prostate)?
Answer: > 87 µM

Question: And the TGI (RPMI-8226 leukemia)?
Answer: 55.5 µM

Question: And the TGI (HCT-116 colon)?
Answer: 28.5 µM

Question: And the TGI (MDA-MB-231 breast)?
Answer: 27.3 µM

Question: And the TGI (PC-3 prostate)?
Answer: 51.6 µM

Question: And the TGI (CCRF-CEM leukemia)?
Answer: 34.3 µM

Question: What about the TGI (HS 578T breast) of the same compound?
Answer: > 60.6 µM

Question: What about the TGI (NCI/ADR-RES ovarian) of the same compound?
Answer: 66.5 µM

Question: And the TGI (A549 NSCLC)?
Answer: > 100 µM

Question: What about the TGI (U251 CNS) of the same compound?
Answer: 31 µM

Question: What about the TGI (EKVX NSCLC) of the same compound?
Answer: > 62.7 µM

Question: What about the TGI (OVCAR-5 ovarian) of the same compound?
Answer: > 78.3 µM

Question: What about the TGI (NCI-H226 lung) of the same compound?
Answer: > 59.7 µM

Question: And the TGI (MALME-3M melanoma)?
Answer: 19.2 µM

Question: What about the TGI (NCI-H460 lung) of the same compound?
Answer: > 100 µM

Question: What about the TGI (HT29 colon) of the same compound?
Answer: 41.4 µM

Question: And the TGI (UACC-257 melanoma)?
Answer: > 61.2 µM

Question: And the TGI (A498 renal)?
Answer: > 90.9 µM

Question: And the TGI (HOP-92 NSCLC)?
Answer: > 77.7 µM

Question: What about the TGI (TK-10 renal) of the same compound?
Answer: > 66.9 µM

Question: And the TGI (HOP-62 NSCLC)?
Answer: 37.3 µM

Question: And the TGI (RXF 393 renal)?
Answer: 49.6 µM

Question: And the TGI (K-562 leukemia)?
Answer: > 39.1 µM

Question: And the TGI (MDA-N)?
Answer: 20.8 µM

Question: What about the TGI (SK-OV-3 ovarian) of the same compound?
Answer: > 73.2 µM

Question: What about the TGI (NCI-H23 lung) of the same compound?
Answer: 48.4 µM

Question: And the TGI (MCF7 breast)?
Answer: 35.1 µM

Question: And the TGI (786-0 renal)?
Answer: 40.6 µM

Question: And the TGI (T-47D breast)?
Answer: 8.66 µM

Question: What about the TGI (CAKI-1 renal) of the same compound?
Answer: > 69.5 µM

Question: And the TGI (HCT-15 colon)?
Answer: > 100 µM

Question: And the TGI (SF-539 CNS)?
Answer: > 75.2 µM

Question: What about the TGI (MDA-MB-435) of the same compound?
Answer: 21.1 µM

Question: What about the TGI (SK-MEL-28 melanoma) of the same compound?
Answer: > 70 µM

Question: What about the TGI (SNB-19 CNS) of the same compound?
Answer: 35.5 µM

Question: And the TGI (LOX IMVI melanoma)?
Answer: > 59.9 µM

Question: And the TGI (ACHN renal)?
Answer: > 66.2 µM

Question: And the TGI (SK-MEL-5 melanoma)?
Answer: 37.3 µM

Question: What about the TGI (HL-60(TB) leukemia) of the same compound?
Answer: 22 µM

Question: And the TGI (SR leukemia)?
Answer: 18.6 µM

Question: And the TGI (COLO 205 colon)?
Answer: 35.7 µM

Question: And the TGI (SN12C renal)?
Answer: 30.2 µM

Question: And the TGI (UO-31 renal)?
Answer: > 63.4 µM

Question: What about the TGI (SNB-75 CNS) of the same compound?
Answer: > 41 µM

Question: And the TGI (IGROV1 ovarian)?
Answer: 36.5 µM

Question: And the TGI (SK-MEL-2 melanoma)?
Answer: > 75.2 µM

Question: And the TGI (OVCAR-8 ovarian)?
Answer: > 59.7 µM

Question: And the TGI (SF-268 CNS)?
Answer: > 47.7 µM

Question: And the TGI (M14 melanoma)?
Answer: > 54.9 µM
